From PubChem BioAssay (NCI)
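Compound exposure: 48 hours, 5 concentrations, 96-well plates. GI50: concentration for 50% inhibition of growth. TGI is the concentration that stops growth completely.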

Columns and labels:
Test in all cases: NCI anticancer screen, dose series, 48 h
786-0 renal = tested on: 786-0 renal
A498 renal = tested on: A498 renal
A549 NSCLC = tested on: A549 NSCLC
ACHN renal = tested on: ACHN renal
BT-549 breast = tested on: BT-549 breast
CAKI-1 renal = tested on: CAKI-1 renal
CCRF-CEM leukemia = tested on: CCRF-CEM leukemia
COLO 205 colon = tested on: COLO 205 colon
DU-145 prostate = tested on: DU-145 prostate
HCC-2998 colon = tested on: HCC-2998 colon
HCT-116 colon = tested on: HCT-116 colon
HCT-15 colon = tested on: HCT-15 colon
HL-60(TB) leukemia = tested on: HL-60(TB) leukemia
HOP-62 NSCLC = tested on: HOP-62 NSCLC
HOP-92 NSCLC = tested on: HOP-92 NSCLC
HS 578T breast = tested on: HS 578T breast
HT29 colon = tested on: HT29 colon
IGROV1 ovarian = tested on: IGROV1 ovarian
K-562 leukemia = tested on: K-562 leukemia
KM12 colon = tested on: KM12 colon
LOX IMVI melanoma = tested on: LOX IMVI melanoma
M14 melanoma = tested on: M14 melanoma
MALME-3M melanoma = tested on: MALME-3M melanoma
MCF7 breast = tested on: MCF7 breast
MDA-MB-231 breast = tested on: MDA-MB-231 breast
MDA-MB-435 = tested on: MDA-MB-435
MOLT-4 leukemia = tested on: MOLT-4 leukemia
NCI-H226 lung = tested on: NCI-H226 lung
NCI-H23 lung = tested on: NCI-H23 lung
NCI-H460 lung = tested on: NCI-H460 lung
NCI-H522 lung = tested on: NCI-H522 lung
NCI/ADR-RES ovarian = tested on: NCI/ADR-RES ovarian
OVCAR-4 ovarian = tested on: OVCAR-4 ovarian
OVCAR-5 ovarian = tested on: OVCAR-5 ovarian
OVCAR-8 ovarian = tested on: OVCAR-8 ovarian
PC-3 prostate = tested on: PC-3 prostate
RPMI-8226 leukemia = tested on: RPMI-8226 leukemia
RXF 393 renal = tested on: RXF 393 renal
SF-268 CNS = tested on: SF-268 CNS
SF-295 CNS = tested on: SF-295 CNS
SF-539 CNS = tested on: SF-539 CNS
SK-MEL-2 melanoma = tested on: SK-MEL-2 melanoma
SK-MEL-28 melanoma = tested on: SK-MEL-28 melanoma
SK-MEL-5 melanoma = tested on: SK-MEL-5 melanoma
SK-OV-3 ovarian = tested on: SK-OV-3 ovarian
SN12C renal = tested on: SN12C renal
SNB-19 CNS = tested on: SNB-19 CNS
SNB-75 CNS = tested on: SNB-75 CNS
SR leukemia = tested on: SR leukemia
SW-620 colon = tested on: SW-620 colon
T-47D breast = tested on: T-47D breast
TK-10 renal = tested on: TK-10 renal
U251 CNS = tested on: U251 CNS
UACC-257 melanoma = tested on: UACC-257 melanoma
UACC-62 melanoma = tested on: UACC-62 melanoma
UO-31 renal = tested on: UO-31 renal

Work on COc1ccc(-c2nn(-c3cccc(NC(=O)c4cccc(C(F)(F)F)c4)c3)cc2-c2ccncc2)cc1Cl yielded a GI50 (786-0 renal) of 2.91 µM, a TGI (786-0 renal) of 27.5 µM and a GI50 (A498 renal) of 1.03 µM. The TGI (A498 renal) was 4.68 µM, the GI50 (A549 NSCLC) was 2.7 µM and the TGI (A549 NSCLC) was greater than 100 µM. The GI50 (ACHN renal) was 4.4 µM, the TGI (ACHN renal) was greater than 100 µM and the GI50 (BT-549 breast) was 3.14 µM. For the same compound, the TGI (BT-549 breast) was greater than 100 µM, the GI50 (CAKI-1 renal) was 2.57 µM and the TGI (CAKI-1 renal) was greater than 100 µM. For the same compound, the GI50 (CCRF-CEM leukemia) was 1.9 µM, the TGI (CCRF-CEM leukemia) was greater than 100 µM and the GI50 (COLO 205 colon) was 1.77 µM. For the same compound, the TGI (COLO 205 colon) was 3.53 µM, the GI50 (DU-145 prostate) was 4.36 µM and the TGI (DU-145 prostate) was greater than 100 µM. It also gave a GI50 (HCC-2998 colon) of 3.29 µM, a TGI (HCC-2998 colon) of 17 µM and a GI50 (HCT-116 colon) of 3.05 µM. It also gave a TGI (HCT-116 colon) greater than 100 µM, a GI50 (HCT-15 colon) of 2 µM and a TGI (HCT-15 colon) greater than 100 µM. It also gave a GI50 (HL-60(TB) leukemia) of 2.96 µM, a TGI (HL-60(TB) leukemia) of 8.64 µM and a GI50 (HOP-62 NSCLC) of 3.07 µM. For the same compound, the TGI (HOP-62 NSCLC) was greater than 100 µM, the GI50 (HOP-92 NSCLC) was 1 µM and the TGI (HOP-92 NSCLC) was 6.54 µM. For the same compound, the GI50 (HS 578T breast) was 1.54 µM, the TGI (HS 578T breast) was 8.74 µM and the GI50 (HT29 colon) was 2.92 µM. It also gave a TGI (HT29 colon) of 27.7 µM, a GI50 (IGROV1 ovarian) of 7.06 µM and a TGI (IGROV1 ovarian) greater than 100 µM. It also gave a GI50 (K-562 leukemia) of 0.837 µM, a TGI (K-562 leukemia) greater than 100 µM and a GI50 (KM12 colon) of 1.35 µM. For the same compound, the TGI (KM12 colon) was 9.7 µM, the GI50 (LOX IMVI melanoma) was 3.08 µM and the TGI (LOX IMVI melanoma) was 27.2 µM. For the same compound, the GI50 (M14 melanoma) was 2.23 µM, the TGI (M14 melanoma) was 25.3 µM and the GI50 (MALME-3M melanoma) was 1.46 µM. It also gave a TGI (MALME-3M melanoma) greater than 100 µM, a GI50 (MCF7 breast) of 1.81 µM and a TGI (MCF7 breast) of 24.8 µM. The GI50 (MDA-MB-231 breast) was 1.77 µM, the TGI (MDA-MB-231 breast) was 16.1 µM and the GI50 (MDA-MB-435) was 0.343 µM. It also gave a TGI (MDA-MB-435) of 2.03 µM, a GI50 (MOLT-4 leukemia) of 2.62 µM and a TGI (MOLT-4 leukemia) greater than 100 µM. For the same compound, the GI50 (NCI-H226 lung) was 4.92 µM, the TGI (NCI-H226 lung) was greater than 100 µM and the GI50 (NCI-H23 lung) was 3.58 µM. The TGI (NCI-H23 lung) was 92.8 µM, the GI50 (NCI-H460 lung) was 2.95 µM and the TGI (NCI-H460 lung) was greater than 100 µM. It also gave a GI50 (NCI-H522 lung) of 0.475 µM, a TGI (NCI-H522 lung) of 3.55 µM and a GI50 (NCI/ADR-RES ovarian) of 1.75 µM. For the same compound, the TGI (NCI/ADR-RES ovarian) was 14 µM, the GI50 (OVCAR-4 ovarian) was 6.24 µM and the TGI (OVCAR-4 ovarian) was greater than 100 µM. It also gave a GI50 (OVCAR-5 ovarian) of 12.2 µM, a TGI (OVCAR-5 ovarian) greater than 100 µM and a GI50 (OVCAR-8 ovarian) of 3.34 µM. It also gave a TGI (OVCAR-8 ovarian) greater than 100 µM, a GI50 (PC-3 prostate) of 1.98 µM and a TGI (PC-3 prostate) greater than 100 µM. For the same compound, the GI50 (RPMI-8226 leukemia) was 2.5 µM, the TGI (RPMI-8226 leukemia) was 49 µM and the GI50 (RXF 393 renal) was 1.46 µM. For the same compound, the TGI (RXF 393 renal) was 7.78 µM, the GI50 (SF-268 CNS) was 4.08 µM and the TGI (SF-268 CNS) was greater than 100 µM. The GI50 (SF-295 CNS) was 2.37 µM, the TGI (SF-295 CNS) was 9.91 µM and the GI50 (SF-539 CNS) was 1.77 µM. For the same compound, the TGI (SF-539 CNS) was 6.01 µM, the GI50 (SK-MEL-2 melanoma) was 3 µM and the TGI (SK-MEL-2 melanoma) was 13.2 µM. For the same compound, the GI50 (SK-MEL-28 melanoma) was 3.07 µM, the TGI (SK-MEL-28 melanoma) was 36 µM and the GI50 (SK-MEL-5 melanoma) was 1.06 µM. It also gave a TGI (SK-MEL-5 melanoma) of 4.4 µM, a GI50 (SK-OV-3 ovarian) of 3.91 µM and a TGI (SK-OV-3 ovarian) greater than 100 µM. For the same compound, the GI50 (SN12C renal) was 5.06 µM, the TGI (SN12C renal) was greater than 100 µM and the GI50 (SNB-19 CNS) was 5.7 µM. The TGI (SNB-19 CNS) was greater than 100 µM, the GI50 (SNB-75 CNS) was 1.17 µM and the TGI (SNB-75 CNS) was 4.07 µM. The GI50 (SR leukemia) was 0.605 µM, the TGI (SR leukemia) was 5.44 µM and the GI50 (SW-620 colon) was 4.07 µM. It also gave a TGI (SW-620 colon) greater than 100 µM, a GI50 (T-47D breast) of 2.56 µM and a TGI (T-47D breast) greater than 100 µM. It also gave a GI50 (TK-10 renal) of 6.77 µM, a TGI (TK-10 renal) greater than 100 µM and a GI50 (U251 CNS) of 1.8 µM. For the same compound, the TGI (U251 CNS) was 17.6 µM, the GI50 (UACC-257 melanoma) was 6.67 µM and the TGI (UACC-257 melanoma) was 61.7 µM. The GI50 (UACC-62 melanoma) was 2.27 µM, the TGI (UACC-62 melanoma) was 24 µM and the GI50 (UO-31 renal) was 2.85 µM. For the same compound, the TGI (UO-31 renal) was greater than 100 µM.
